How the values were obtained:
[1] = Total clearance in rat plasma at 10 mg/kg; type: ADME, organism-based
[2] = biological target: Tyrosine-protein kinase Lck (Homo sapiens, UniProt P06239); assay: Inhibition of LCK (unknown origin)
[3] = biological target: T1, Tyrosine-protein kinase Tec (Homo sapiens, UniProt P42680); assay: Inhibition of TEC (unknown origin)
T1 sequence (P42680 whole entry): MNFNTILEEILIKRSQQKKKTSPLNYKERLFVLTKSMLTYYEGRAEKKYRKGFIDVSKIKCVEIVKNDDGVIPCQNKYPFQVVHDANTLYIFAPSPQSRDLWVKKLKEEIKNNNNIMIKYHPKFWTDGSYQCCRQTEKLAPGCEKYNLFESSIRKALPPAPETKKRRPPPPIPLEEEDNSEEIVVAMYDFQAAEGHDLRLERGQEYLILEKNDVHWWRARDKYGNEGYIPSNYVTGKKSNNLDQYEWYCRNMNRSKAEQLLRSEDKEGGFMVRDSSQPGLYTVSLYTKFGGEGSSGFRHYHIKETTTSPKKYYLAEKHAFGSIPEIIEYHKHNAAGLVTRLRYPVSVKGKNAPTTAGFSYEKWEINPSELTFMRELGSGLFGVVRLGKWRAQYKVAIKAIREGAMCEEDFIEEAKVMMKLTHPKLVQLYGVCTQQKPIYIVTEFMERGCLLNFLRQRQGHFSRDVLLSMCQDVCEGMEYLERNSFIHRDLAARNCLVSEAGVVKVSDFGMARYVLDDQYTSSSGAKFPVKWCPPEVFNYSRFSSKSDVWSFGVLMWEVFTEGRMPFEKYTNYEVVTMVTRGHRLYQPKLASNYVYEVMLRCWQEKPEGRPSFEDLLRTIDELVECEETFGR

[4] = biological target: T2, Tyrosine-protein kinase BTK (Homo sapiens, UniProt Q06187); assay: Inhibition of recombinant full-length His6-tagged BTK (unknown origin) expressed in baculovirus infected Sf9 cells using biotinylated A5 peptide as substrate preincubated for 60 mins followed by substrate addition measured after 120 mins by LANCE TR-FRET assay
T2 sequence (Q06187 whole entry): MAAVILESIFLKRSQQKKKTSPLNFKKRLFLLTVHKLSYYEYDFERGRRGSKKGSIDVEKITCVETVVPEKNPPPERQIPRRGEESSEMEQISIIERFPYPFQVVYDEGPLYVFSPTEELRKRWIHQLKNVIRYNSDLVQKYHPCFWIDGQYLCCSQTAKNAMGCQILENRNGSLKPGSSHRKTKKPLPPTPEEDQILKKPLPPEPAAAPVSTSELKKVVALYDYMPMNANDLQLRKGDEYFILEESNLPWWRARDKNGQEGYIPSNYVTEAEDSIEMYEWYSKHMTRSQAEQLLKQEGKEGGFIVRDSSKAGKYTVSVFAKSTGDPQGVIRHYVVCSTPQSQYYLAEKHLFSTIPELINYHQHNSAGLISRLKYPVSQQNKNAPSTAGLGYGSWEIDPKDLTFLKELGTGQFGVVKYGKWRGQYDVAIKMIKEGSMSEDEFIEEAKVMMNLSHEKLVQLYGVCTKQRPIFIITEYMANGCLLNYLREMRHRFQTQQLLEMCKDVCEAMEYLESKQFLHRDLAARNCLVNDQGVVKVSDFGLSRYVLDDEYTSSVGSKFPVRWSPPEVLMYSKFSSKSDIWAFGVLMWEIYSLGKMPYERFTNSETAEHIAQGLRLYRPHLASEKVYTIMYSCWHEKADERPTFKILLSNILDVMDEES

[5] = biological target: Protein-tyrosine kinase 6 (Homo sapiens, UniProt Q13882); assay: Inhibition of PTK6 (unknown origin)
Protein-tyrosine kinase 6, sequence (Q13882 whole entry): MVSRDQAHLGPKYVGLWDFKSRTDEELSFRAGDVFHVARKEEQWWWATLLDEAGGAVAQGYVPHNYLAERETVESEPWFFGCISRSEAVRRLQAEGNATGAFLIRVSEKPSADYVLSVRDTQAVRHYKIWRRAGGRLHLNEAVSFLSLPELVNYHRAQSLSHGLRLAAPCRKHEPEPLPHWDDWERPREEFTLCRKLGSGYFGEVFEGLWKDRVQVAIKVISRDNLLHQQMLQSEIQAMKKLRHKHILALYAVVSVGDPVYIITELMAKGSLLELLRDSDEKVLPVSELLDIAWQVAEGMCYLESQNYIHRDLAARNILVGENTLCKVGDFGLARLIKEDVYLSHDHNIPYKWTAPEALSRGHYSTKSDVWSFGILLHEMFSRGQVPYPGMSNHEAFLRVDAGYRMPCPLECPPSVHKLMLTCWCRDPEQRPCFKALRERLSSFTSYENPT

[6] = biological target: Tyrosine-protein kinase Yes (Homo sapiens, UniProt P07947); assay: Inhibition of YES1 (unknown origin)
[7] = biological target: Tyrosine-protein kinase FRK (Homo sapiens, UniProt P42685); assay: Inhibition of FRK (unknown origin)
[8] = biological target: Proto-oncogene tyrosine-protein kinase Src (Homo sapiens, UniProt P12931); assay: Inhibition of SRC (unknown origin)
[9] = Half life in rat at 10 mg/kg; type: ADME, organism-based; conditions: in vivo
[10] = biological target: Tyrosine-protein kinase Lyn (Homo sapiens, UniProt P07948); assay: Inhibition of LYNB (unknown origin)
Tyrosine-protein kinase Lyn, sequence (P07948 whole entry): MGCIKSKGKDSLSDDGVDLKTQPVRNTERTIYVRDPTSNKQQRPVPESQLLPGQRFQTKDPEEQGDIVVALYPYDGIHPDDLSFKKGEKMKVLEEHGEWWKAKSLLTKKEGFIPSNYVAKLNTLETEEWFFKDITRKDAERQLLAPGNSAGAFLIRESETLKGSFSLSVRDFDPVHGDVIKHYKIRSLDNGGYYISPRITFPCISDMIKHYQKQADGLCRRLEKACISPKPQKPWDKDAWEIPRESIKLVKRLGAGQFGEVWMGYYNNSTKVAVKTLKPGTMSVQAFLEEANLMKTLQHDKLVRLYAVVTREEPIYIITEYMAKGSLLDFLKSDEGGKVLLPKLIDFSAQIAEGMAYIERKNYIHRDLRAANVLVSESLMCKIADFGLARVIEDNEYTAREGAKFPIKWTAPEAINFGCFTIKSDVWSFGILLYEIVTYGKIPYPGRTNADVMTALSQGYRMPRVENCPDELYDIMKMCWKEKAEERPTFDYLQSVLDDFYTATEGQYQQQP

[11] = biological target: Receptor tyrosine-protein kinase erbB-4 (Homo sapiens, UniProt Q15303); assay: Inhibition of ERBB4 (unknown origin)
Receptor tyrosine-protein kinase erbB-4, sequence (Q15303 whole entry): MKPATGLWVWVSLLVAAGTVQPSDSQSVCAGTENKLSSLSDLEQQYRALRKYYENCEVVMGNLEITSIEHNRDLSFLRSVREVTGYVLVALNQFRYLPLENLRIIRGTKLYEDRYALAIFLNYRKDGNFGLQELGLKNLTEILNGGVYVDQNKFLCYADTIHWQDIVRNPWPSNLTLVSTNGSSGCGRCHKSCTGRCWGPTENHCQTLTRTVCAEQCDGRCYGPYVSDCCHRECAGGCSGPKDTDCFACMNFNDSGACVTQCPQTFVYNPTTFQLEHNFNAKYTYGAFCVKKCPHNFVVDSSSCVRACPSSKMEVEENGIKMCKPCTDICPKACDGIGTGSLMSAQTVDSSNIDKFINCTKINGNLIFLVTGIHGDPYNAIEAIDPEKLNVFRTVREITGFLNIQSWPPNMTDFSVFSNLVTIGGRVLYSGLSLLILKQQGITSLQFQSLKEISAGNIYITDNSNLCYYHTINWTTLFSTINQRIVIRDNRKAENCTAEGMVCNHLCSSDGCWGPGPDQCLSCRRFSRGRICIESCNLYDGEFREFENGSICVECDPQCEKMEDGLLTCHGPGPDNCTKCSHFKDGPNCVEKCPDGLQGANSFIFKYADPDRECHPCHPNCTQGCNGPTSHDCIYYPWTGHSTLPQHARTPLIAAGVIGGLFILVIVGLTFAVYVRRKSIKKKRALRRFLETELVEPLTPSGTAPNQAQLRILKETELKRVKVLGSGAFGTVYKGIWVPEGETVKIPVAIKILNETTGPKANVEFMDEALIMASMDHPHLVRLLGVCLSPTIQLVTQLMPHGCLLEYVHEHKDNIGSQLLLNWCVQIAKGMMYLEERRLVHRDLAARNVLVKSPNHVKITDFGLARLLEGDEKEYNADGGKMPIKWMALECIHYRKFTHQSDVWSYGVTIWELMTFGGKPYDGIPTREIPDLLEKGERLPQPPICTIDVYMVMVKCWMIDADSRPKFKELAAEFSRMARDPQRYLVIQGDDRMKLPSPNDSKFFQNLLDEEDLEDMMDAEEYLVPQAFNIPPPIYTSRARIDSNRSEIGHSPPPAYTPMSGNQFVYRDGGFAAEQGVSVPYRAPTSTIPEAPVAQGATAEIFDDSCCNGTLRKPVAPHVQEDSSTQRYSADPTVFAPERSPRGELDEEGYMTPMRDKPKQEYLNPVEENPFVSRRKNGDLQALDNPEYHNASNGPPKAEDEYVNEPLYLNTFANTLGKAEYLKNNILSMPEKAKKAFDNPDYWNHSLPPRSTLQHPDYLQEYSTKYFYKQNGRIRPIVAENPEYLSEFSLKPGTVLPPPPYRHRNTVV

[12] = biological target: Tyrosine-protein kinase Fyn (Homo sapiens, UniProt P06241); assay: Inhibition of FYN (unknown origin)
Tyrosine-protein kinase Fyn, sequence (P06241 whole entry): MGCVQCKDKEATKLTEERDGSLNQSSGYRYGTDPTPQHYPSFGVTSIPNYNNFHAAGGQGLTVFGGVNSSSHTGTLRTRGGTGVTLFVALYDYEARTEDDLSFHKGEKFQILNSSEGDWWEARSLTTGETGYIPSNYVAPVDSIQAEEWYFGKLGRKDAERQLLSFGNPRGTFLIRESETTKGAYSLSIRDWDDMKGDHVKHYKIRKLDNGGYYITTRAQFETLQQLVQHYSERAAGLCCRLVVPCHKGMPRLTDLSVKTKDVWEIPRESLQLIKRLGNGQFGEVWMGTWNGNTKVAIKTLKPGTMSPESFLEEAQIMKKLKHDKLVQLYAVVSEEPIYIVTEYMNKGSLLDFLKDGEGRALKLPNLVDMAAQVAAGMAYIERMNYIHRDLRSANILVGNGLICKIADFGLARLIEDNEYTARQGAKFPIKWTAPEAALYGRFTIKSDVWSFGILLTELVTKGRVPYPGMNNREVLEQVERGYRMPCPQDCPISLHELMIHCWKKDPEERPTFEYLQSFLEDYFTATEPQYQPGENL

[13] = biological target: Tyrosine-protein kinase Srms (Homo sapiens, UniProt Q9H3Y6); assay: Inhibition of SRMS (unknown origin)
Tyrosine-protein kinase Srms, sequence (Q9H3Y6 whole entry): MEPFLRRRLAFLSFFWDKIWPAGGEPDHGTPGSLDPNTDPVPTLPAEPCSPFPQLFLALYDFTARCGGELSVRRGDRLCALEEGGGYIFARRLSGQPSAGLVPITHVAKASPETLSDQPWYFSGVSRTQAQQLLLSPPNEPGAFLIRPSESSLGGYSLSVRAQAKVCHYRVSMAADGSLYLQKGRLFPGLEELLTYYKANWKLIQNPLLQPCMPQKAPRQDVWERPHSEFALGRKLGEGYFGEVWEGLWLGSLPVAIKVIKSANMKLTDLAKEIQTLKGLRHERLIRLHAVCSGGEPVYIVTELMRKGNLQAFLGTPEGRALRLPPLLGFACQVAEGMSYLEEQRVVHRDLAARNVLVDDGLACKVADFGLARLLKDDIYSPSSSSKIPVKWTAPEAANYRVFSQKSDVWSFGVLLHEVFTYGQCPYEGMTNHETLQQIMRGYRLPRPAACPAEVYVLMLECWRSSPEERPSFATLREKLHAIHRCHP

[14] = Oral bioavailability in rat at 10 mg/kg; type: ADME, organism-based; conditions: in vivo
[15] = Half life in dog at 2 mg/kg administered as cassette dose; type: ADME, organism-based, Canis lupus familiaris; conditions: in vivo
[16] = biological target: T2, Tyrosine-protein kinase BTK; assay: Inhibition of BTK in human PBMC assessed as reduction in anti-IgM-induced MIP1beta
[17] = Total clearance in dog plasma at 2 mg/kg administered as cassette dose; type: ADME, organism-based, Canis lupus familiaris
[18] = biological target: Tyrosine-protein kinase Fgr (Homo sapiens, UniProt P09769); assay: Inhibition of FGR (unknown origin)
Tyrosine-protein kinase Fgr, sequence (P09769 whole entry): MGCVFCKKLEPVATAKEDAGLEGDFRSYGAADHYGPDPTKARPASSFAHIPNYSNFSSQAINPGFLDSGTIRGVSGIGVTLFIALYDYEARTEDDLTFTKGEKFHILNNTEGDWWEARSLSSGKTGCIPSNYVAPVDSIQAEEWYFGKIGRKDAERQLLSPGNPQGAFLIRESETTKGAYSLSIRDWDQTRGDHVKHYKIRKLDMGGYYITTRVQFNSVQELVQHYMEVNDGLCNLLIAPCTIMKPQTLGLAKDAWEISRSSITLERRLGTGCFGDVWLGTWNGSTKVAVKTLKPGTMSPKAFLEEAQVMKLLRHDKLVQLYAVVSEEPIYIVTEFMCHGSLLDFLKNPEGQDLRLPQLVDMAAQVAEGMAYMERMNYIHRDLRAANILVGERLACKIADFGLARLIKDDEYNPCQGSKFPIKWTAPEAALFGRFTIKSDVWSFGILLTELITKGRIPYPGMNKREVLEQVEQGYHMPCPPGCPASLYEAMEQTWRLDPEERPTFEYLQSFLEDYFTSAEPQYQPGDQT

[19] = biological target: T3, Tyrosine-protein kinase TXK (Homo sapiens, UniProt P42681); assay: Inhibition of TXK (unknown origin)
T3 sequence (P42681 whole entry): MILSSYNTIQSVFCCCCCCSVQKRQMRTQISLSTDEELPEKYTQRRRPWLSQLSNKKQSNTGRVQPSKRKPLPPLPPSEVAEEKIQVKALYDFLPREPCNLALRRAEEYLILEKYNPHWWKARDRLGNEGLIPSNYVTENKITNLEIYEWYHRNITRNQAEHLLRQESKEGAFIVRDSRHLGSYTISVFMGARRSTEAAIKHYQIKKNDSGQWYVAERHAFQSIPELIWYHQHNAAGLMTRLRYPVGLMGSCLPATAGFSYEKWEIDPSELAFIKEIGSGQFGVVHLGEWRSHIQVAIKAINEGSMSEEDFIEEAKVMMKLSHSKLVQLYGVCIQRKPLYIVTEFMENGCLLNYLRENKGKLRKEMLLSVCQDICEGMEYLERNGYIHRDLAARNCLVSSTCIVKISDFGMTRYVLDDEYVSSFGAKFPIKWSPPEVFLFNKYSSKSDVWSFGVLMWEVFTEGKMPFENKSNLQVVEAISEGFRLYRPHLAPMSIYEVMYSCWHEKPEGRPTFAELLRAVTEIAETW

[20] = biological target: Tyrosine-protein kinase Blk (Homo sapiens, UniProt P51451); assay: Inhibition of BLK (unknown origin)
Tyrosine-protein kinase Blk, sequence (P51451 whole entry): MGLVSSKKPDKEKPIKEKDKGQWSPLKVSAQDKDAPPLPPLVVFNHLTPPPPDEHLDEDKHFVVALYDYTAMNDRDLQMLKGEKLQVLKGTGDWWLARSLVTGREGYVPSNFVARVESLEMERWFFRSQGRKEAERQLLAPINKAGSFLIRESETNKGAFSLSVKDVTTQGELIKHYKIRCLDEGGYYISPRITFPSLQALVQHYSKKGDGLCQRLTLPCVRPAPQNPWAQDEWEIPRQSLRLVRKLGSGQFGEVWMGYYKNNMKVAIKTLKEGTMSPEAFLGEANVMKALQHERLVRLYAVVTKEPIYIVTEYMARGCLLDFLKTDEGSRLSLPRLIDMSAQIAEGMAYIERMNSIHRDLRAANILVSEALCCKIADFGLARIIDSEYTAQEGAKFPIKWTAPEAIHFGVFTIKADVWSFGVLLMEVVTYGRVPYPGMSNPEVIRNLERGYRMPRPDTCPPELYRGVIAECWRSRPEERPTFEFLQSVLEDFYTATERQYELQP

[21] = biological target: Tyrosine-protein kinase CSK (Homo sapiens, UniProt P41240); assay: Inhibition of CSK (unknown origin)
[22] = biological target: T4, Cytoplasmic tyrosine-protein kinase BMX (Homo sapiens, UniProt P51813); assay: Inhibition of BMX (unknown origin)
T4 sequence (P51813 whole entry): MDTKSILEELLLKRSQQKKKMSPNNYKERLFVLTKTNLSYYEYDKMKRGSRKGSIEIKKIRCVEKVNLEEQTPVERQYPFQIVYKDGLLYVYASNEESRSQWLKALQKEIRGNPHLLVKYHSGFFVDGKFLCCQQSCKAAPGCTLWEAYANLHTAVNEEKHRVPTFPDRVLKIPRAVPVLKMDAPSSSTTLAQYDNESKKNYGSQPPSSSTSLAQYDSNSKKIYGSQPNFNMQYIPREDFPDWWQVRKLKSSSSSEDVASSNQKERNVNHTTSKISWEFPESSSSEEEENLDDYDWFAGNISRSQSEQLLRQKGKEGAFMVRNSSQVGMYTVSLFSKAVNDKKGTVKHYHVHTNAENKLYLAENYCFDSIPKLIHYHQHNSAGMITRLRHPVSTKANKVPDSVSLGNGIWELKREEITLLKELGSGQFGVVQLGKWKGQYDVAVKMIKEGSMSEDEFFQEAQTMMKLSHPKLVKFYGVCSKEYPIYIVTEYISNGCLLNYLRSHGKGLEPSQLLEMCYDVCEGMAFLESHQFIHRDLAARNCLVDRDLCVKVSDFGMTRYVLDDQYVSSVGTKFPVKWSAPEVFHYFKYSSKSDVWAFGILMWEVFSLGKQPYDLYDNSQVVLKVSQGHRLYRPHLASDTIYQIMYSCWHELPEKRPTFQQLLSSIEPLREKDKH

[23] = Oral bioavailability in dog at 2 mg/kg; type: ADME, organism-based, Canis lupus familiaris; conditions: in vivo
[24] = Total clearance in dog plasma at 2 mg/kg; type: ADME, organism-based, Canis lupus familiaris
[25] = Half life in dog at 2 mg/kg; type: ADME, organism-based, Canis lupus familiaris; conditions: in vivo
Homo sapiens [26] = organism: Homo sapiens; assay: Selectivity ratio of IC50 for SRC (unknown origin) to IC50 for BTK (unknown origin)
Homo sapiens [27] = organism: Homo sapiens; assay: Selectivity ratio of IC50 for SRMS (unknown origin) to IC50 for BTK (unknown origin)
Homo sapiens [28] = organism: Homo sapiens; assay: Selectivity ratio of IC50 for FGR (unknown origin) to IC50 for BTK (unknown origin)
Homo sapiens [29] = organism: Homo sapiens; assay: Selectivity ratio of IC50 for TEC (unknown origin) to IC50 for BTK (unknown origin)
Homo sapiens [30] = organism: Homo sapiens; assay: Selectivity ratio of IC50 for BLK (unknown origin) to IC50 for BTK (unknown origin)
Homo sapiens [31] = organism: Homo sapiens; assay: Selectivity ratio of IC50 for TXK (unknown origin) to IC50 for BTK (unknown origin)
Homo sapiens [32] = organism: Homo sapiens; assay: Selectivity ratio of IC50 for ERBB4 (unknown origin) to IC50 for BTK (unknown origin)
Homo sapiens [33] = organism: Homo sapiens; assay: Selectivity ratio of IC50 for BMX (unknown origin) to IC50 for BTK (unknown origin)
Homo sapiens [34] = organism: Homo sapiens; assay: Selectivity ratio of IC50 for FRK (unknown origin) to IC50 for BTK (unknown origin)
Homo sapiens [35] = organism: Homo sapiens; assay: Selectivity ratio of IC50 for YES1 (unknown origin) to IC50 for BTK (unknown origin)
Homo sapiens [36] = organism: Homo sapiens; assay: Selectivity ratio of IC50 for CSK (unknown origin) to IC50 for BTK (unknown origin)
Homo sapiens [37] = organism: Homo sapiens; assay: Selectivity ratio of IC50 for LCK (unknown origin) to IC50 for BTK (unknown origin)
[38] = biological target: Voltage-gated inwardly rectifying potassium channel KCNH2 (Homo sapiens, UniProt Q12809); assay: Inhibition of human ERG by [35S]-MK499 displacement or iKr channel assay
Homo sapiens [39] = organism: Homo sapiens; assay: Selectivity ratio of IC50 for PTK6 (unknown origin) to IC50 for BTK (unknown origin)
Homo sapiens [40] = organism: Homo sapiens; assay: Selectivity ratio of IC50 for FYN (unknown origin) to IC50 for BTK (unknown origin)
Homo sapiens [41] = organism: Homo sapiens; assay: Selectivity ratio of IC50 for LYNB (unknown origin) to IC50 for BTK (unknown origin)

Row | clearance [1] [mL/min/kg] | IC50 [2] [nM] | IC50 [3] [nM] | IC50 [4] [nM] | IC50 [5] [nM] | IC50 [6] [nM] | IC50 [7] [nM] | IC50 [8] [nM] | half-life [9] [h] | IC50 [10] [nM] | IC50 [11] [nM] | IC50 [12] [nM] | IC50 [13] [nM] | bioavailability [14] [%] | IC50 [16] [nM] | IC50 [18] [nM] | IC50 [19] [nM] | IC50 [20] [nM] | IC50 [21] [nM] | IC50 [22] [nM] | Structure (SMILES) | also measured
1 | 23 | 21 | 191 | 0.59 to 0.6 | 113 | 60 | 132 | 112 | 1.1 | 399 | 76 | 248 | 65 | 75 | 13 | 39 | 282 | 50 | 665 | 200 | Nc1nccn2c([C@H]3CN(C4CCOCC4)CCO3)nc(-c3ccc(C(=O)Nc4cc(C(F)(F)F)ccn4)cc3F)c12 | half-life [15]: 3.1 h; clearance [17]: 5.9 mL/min/kg
2 | 4.2 | – | – | – | – | – | – | – | 3.9 | – | – | – | – | 40 | – | – | – | – | – | – | C[C@H]1CO[C@@H](c2nc(-c3ccc(C(=O)Nc4cc(C(F)(F)F)ccn4)cc3F)c3c(N)nccn23)CN1C(=O)C1CC1 | bioavailability [23]: 88%; clearance [24]: 1.6 mL/min/kg; half-life [25]: 8.8 h
3 | – | 7 | 170 | 0.8 to 0.83 | 48 | 32 | 85 | 77 | – | 115 | 59 | 105 | 50 | – | 65 | 22 | 231 | 29 | 455 | 127 | Nc1nccn2c([C@@H]3CCCN(C4CCOCC4)C3)nc(-c3ccc(C(=O)Nc4cc(C(F)(F)F)ccn4)cc3F)c12 | Ratio IC50 (Homo sapiens [26]): 93; Ratio IC50 (Homo sapiens [27]): 60; Ratio IC50 (Homo sapiens [28]): 26; Ratio IC50 (Homo sapiens [29]): 205; Ratio IC50 (Homo sapiens [30]): 35; Ratio IC50 (Homo sapiens [31]): 278; Ratio IC50 (Homo sapiens [32]): 71; Ratio IC50 (Homo sapiens [33]): 153; Ratio IC50 (Homo sapiens [34]): 102; Ratio IC50 (Homo sapiens [35]): 38; Ratio IC50 (Homo sapiens [36]): 548; Ratio IC50 (Homo sapiens [37]): 9; IC50 [38]: 100 nM; Ratio IC50 (Homo sapiens [39]): 58; Ratio IC50 (Homo sapiens [40]): 127; Ratio IC50 (Homo sapiens [41]): 138

Reference: ChEMBL document CHEMBL4052776, “Discovery of 3-morpholino-imidazole[1,5-a]pyrazine BTK inhibitors for rheumatoid arthritis” (Bioorg Med Chem Lett, 2017)
